The text below walks through data of US20220372542A1, “DETECTION OF ANALYTES BY PROTEIN SWITCHES” (priority 2019, published 2022).

Test [1] concerns the target glucose dehydrogenase protein switch GDH-2004, GDH-105 variant (Bacillus subtilis, UniProt P12310). Nature of the test: screen of GDH variants for glucose activity against analytes. Type of test: biochemical. The procedure: (§1) Glucose dehydrogenase (GDH) variant libraries comprising GDH polypeptides developed using GDH-105 (Codexis, Redwood, Calif.) as a backbone were prepared. Approximately 2800 GDH variants were prepared. Glucose activity was determined by either NADH kinetic assay using a spectrophotometer set at UV 340 or UV 360 at various time intervals or by endpoint measurement of gluconic acid using RapidFire mass spectrometer.

Test [2] concerns the target glucose dehydrogenase protein switch GDH-2005, GDH-105 variant (Bacillus subtilis, UniProt P12310). The test is described as above. Type of test: biochemical. The note with it: cortisol 2.08 mM, pH 7.5, NADH kinetics at UV340. As for the experimental part:
as §1

Test [3] concerns the target glucose dehydrogenase protein switch GDH-2009, GDH-105 variant (Bacillus subtilis, UniProt P12310). The description is as above. Type of test: biochemical. The procedure:
as §1

In test [4] the target is glucose dehydrogenase protein switch GDH-2008, GDH-105 variant (Bacillus subtilis, UniProt P12310). Described as above. Type of test: biochemical. The note with it: methotrexate 5.42 mM, pH 7.0, gluconic acid by RapidFire MS. The procedure: as §1
Test [5] concerns the target glucose dehydrogenase protein switch GDH-2007, GDH-105 variant (Bacillus subtilis, UniProt P12310). The description is as above. In kind it is biochemical. The note with it: methotrexate 5.42 mM, pH 7.0, gluconic acid by RapidFire MS. The procedure:
as §1

Test [6] addresses glucose dehydrogenase protein switch GDH-2010, GDH-105 variant (Bacillus subtilis, UniProt P12310). Described as above. In kind it is biochemical. The note with it: methotrexate 5.42 mM, pH 7.0, gluconic acid by RapidFire MS. The procedure: as §1
The target in test [7] is glucose dehydrogenase protein switch GDH-2025 (Rd3bb), variant of GDH-2016, C96F, SEQ ID NO: 1 (Bacillus subtilis, UniProt P12310, A159T/E170K/E96F/F155A/I165M/P194T/Q252L/V156S). Put plainly: warfarin inhibition of evolved GDH sensors (Table 13). The note with it: NAD+ 10 mM, glucose 5 mM, 100 mM PBS, 33° C. Type of test: biochemical. The procedure: (§2) Evolved Warfarin sensors. GDH-105, GDH-2016, GDH-2025, GDH-2026, GDH-2027, and GDH-2028 glucose-responsive active areas were prepared using a single-layer active area system. The GDH was obtained from Codexis, Redwood City, Calif. The active area (0.33 mm^2) was coated onto a carbon working electrode in a single layer composition (Table 8). Following deposition of the active area, the active area was cured for three days at room temperature.
(§3) Experimental procedure. Testing of the GDH-105, GDH-2016, GDH-2025, GDH-2026, GDH-2027, and GDH-2028 sensors was conducted by immersing the electrode in a 100 mM PBS buffer solution at 33° C. NAD^+(10 mM) supplied to a test beaker containing PBS buffer followed by the addition of glucose (5 mM).

For test [8], the target named is glucose dehydrogenase protein switch GDH-2028 (Rd4bb), variant of GDH-2025, C96F; L252V, SEQ ID NO: 15 (Bacillus subtilis, UniProt P12310, A159T/E170K/E96F/F155A/I165M/P194T/Q252V/V156S). The test is described as above. The note with it: NAD+ 10 mM, glucose 5 mM, 100 mM PBS, 33° C. In kind it is biochemical. The procedure: as §2, §3
For test [9], the target named is glucose dehydrogenase protein switch GDH-2026, variant of GDH-2016, C96F; I141V, SEQ ID NO: 7 (Bacillus subtilis, UniProt P12310, A159T/E170K/E96F/F155A/I141V/I165M/P194T/Q252L/V156S). The description is as above. Type of test: biochemical. The note with it: NAD+ 10 mM, glucose 5 mM, 100 mM PBS, 33° C. The procedure:
as §2, §3

For test [10], the target named is glucose dehydrogenase protein switch GDH-2027, variant of GDH-2025, C96F; A173G, SEQ ID NO: 12 (Bacillus subtilis, UniProt P12310, A159T/A173G/E170K/E96F/F155A/I165M/P194T/Q252L/V156S). Described as above. Type of test: biochemical. Particulars: NAD+ 10 mM, glucose 5 mM, 100 mM PBS, 33° C. The procedure: as §2, §3
In test [11] the target is T1, glucose dehydrogenase GDH-105 (control, backbone) (Bacillus subtilis, UniProt P12310, E198G/I165M/P194T). The description is as above. Type of test: biochemical. The note with it: NAD+ 10 mM, glucose 5 mM, 33° C. As for the experimental part:
as §2, §3

The target of test [12] is T2, glucose dehydrogenase protein switch GDH-2016 (Rd2bb), GDH-105 variant, SEQ ID NO: 11 (Bacillus subtilis, UniProt P12310, A159T/E170K/E96C/F155A/I165M/P194T/Q252L/V156S).
T2 construct: electrode sensor and screen
Nature of the test: biochemical. Particulars: read-out: inhibition at 300 uM warfarin. The procedure:
Experimental GDH-105 and GDH-2016 glucose-responsive active areas were prepared using a single-layer active area system. The GDH was obtained from Codexis, Redwood City, Calif. The active area was coated onto a carbon working electrode in a single layer composition (Table 8). Following deposition of the active area, the active area was cured for three days at RT.
(§4) Experimental procedure. Testing of the GDH-105 and GDH-2016 sensors was conducted by immersing the electrode in a 100 mM PBS buffer solution at 33° C. NAD^+ (5 mM) supplied to a test beaker containing PBS buffer followed by the addition of glucose (1 mM).

Test [13] addresses glucose dehydrogenase protein switch GDH-2013, GDH-105 variant (Bacillus subtilis, UniProt P12310). Nature of the test: screen of GDH variants for glucose activity against analytes. Type of test: biochemical. Particulars: warfarin 2.08 mM, pH 7.0, NADH kinetics at UV360. The procedure: as §1
In test [14] the target is T1, glucose dehydrogenase GDH-105 (control, backbone). Nature of the test: warfarin inhibition of GDH sensor (FIGS. 9A and 9B). Type of test: biochemical. Particulars: 10, 30, 80, 180, and 300 uM warfarin; NAD+ 5 mM, glucose 1 mM, 33° C. The procedure:
Warfarin Sensor. Experimental GDH-105 and GDH-2016 glucose-responsive active areas were prepared using a single-layer active area system. The GDH was obtained from Codexis, Redwood City, Calif. The active area was coated onto a carbon working electrode in a single layer composition (Table 8). Following deposition of the active area, the active area was cured for three days at RT.
as §4

Test [15] has as its target T2, glucose dehydrogenase protein switch GDH-2016 (Rd2bb), GDH-105 variant, SEQ ID NO: 11. In kind it is biochemical. The note with it: warfarin 2.08 mM, pH 7.0, NADH kinetics at UV360. The procedure: as §1
Where [16] appears, read: methotrexate 5.42 mM, pH 7.0, gluconic acid by RapidFire MS.
The mark [17] stands for this setting: warfarin 2.08 mM, pH 7.0, NADH kinetics at UV360.

A word on the inhibition: it is the drop in the measured response relative to a control, in per cent.

In the case of `C[C@]12CCC(=O)C=C1CC[C@@H]1[C@@H]2[C@@H](O)C[C@@]2(C)[C@H]1CC[C@]2(O)C(=O)CO` [Cortisol], the “Activate/Inhibit (glucose activity)” value in [1] (cortisol 2.08 mM, pH 7.5, NADH kinetics at UV340) is “Inhibit”; in [2], “Inhibit”.

As for `CN(Cc1cnc2nc(N)nc(N)c2n1)c1ccc(C(=O)N[C@@H](CCC(=O)O)C(=O)O)cc1` [Methotrexate], the “Activate/Inhibit (glucose activity)” value in test [1] (setting [16]), in test [3] (setting [16]), in test [4], in test [5] and in test [6] was “Inhibit” each time.

Consider `CC(=O)CC(c1ccccc1)c1c(O)c2ccccc2oc1=O` (stereo not shown) [Warfarin, warfarin], for which the “GDH inhibition at 0.3 mM WF” value came to 79% in [7]; 84% in test [8]; 78% in test [9]; 79% in [10]; 5% in [11] (0.3 mM WF, 100 mM PBS). Further, the “inhibition to increasing warfarin concentrations” value in [11] (10, 30, 80, 180, and 300 uM warfarin) is listed as “remained unaffected”. The inhibition at 300 µM in test [12] is about 55%. Further, the “Activate/Inhibit (glucose activity)” value in test [13], in [1] (setting [17]), in test [3] (setting [17]) and in test [15] was “Inhibit” each time. The “inhibition of the sensor to increasing warfarin concentrations” value in test [14] is listed as “not affected”.
